Test results reported in patent US8685974B2 (Bayer CropScience AG, priority 2009, dated 2014).
Read-outs that look alike come from different tables or passages of the source. Marks after values point to notes of the source that are not given here.

Tests used:
[1] = tested on: Pyrenophora teres; test: In vivo test on Pyrenophora teres (barley net blotch); settings: dose of 500 ppm; barley plants; grading 12 days after contamination
Description: In Vivo Test on Pyrenophora teres (Barley Net Blotch)
The active ingredients tested are prepared by homogenization in a mixture of acetone/Tween/DMSO, then diluted with water to obtain the desired active material concentration.
Barley plants (Plaisant variety), sown on a 50/50 peat soil-pozzolana substrate in starter cups and grown at 12° C., are treated at the 1-leaf stage (10 cm tall) by spraying with the active ingredient prepared as described above.
Plants, used as controls, are treated with an aqueous solution not containing the active material.
After 24 hours, the plants are contaminated by spraying them with an aqueous suspension of Pyrenophora teres spores (12,000 spores per ml). The spores are collected from a 12-day-old culture. The contaminated barley plants are incubated for 24 hours at about 20° C. and at 100% relative humidity, and then for 12 days at 80% relative humidity.
Grading is carried out 12 days after the contamination, in comparison with the control plants.

[2] = tested on: Alternaria solani; test: Alternaria test (tomato) / protective; type: in vivo; settings: 500 ppm active compound, protective spray, evaluated 7 days after inoculation
Description: Alternaria Test (Tomato)/Protective
Solvent: 49 parts by weight of N,N-dimethylformamide
Emulsifier: 1 part by weight of alkylaryl polyglycol ether
To produce a suitable preparation of active compound, 1 part by weight of active compound is mixed with the stated amounts of solvent and emulsifier, and the concentrate is diluted with water to the desired concentration.
To test for protective activity, young tomato plants are sprayed with the preparation of active compound at the stated application rate. […] The plants then remain at 96% rel. atmospheric humidity and a temperature of 20° C.
Evaluation is carried out 7 days after the inoculation. 0% means an efficacy which corresponds to that of the control, whereas an efficacy of 100% means that no infection is observed.

[3] = tested on: Fusarium graminearum; type: cell-based; settings: 50 μM; for % Inhibition of DON/AcDON at 50 μM: 7 days at 28° C.

| Compound | protection [1] [%] | log p (pH 2.7) | efficacy [2] [%] | also measured |
| --- | --- | --- | --- | --- |
| Clc1ccc(-c2nn(C3CCCCC3)cc2-c2ccncc2)s1 [Example 11] | 89 | 2.54^[b] | – | – |
| CC(C)CC(C)n1cc(-c2ccncc2)c(-c2ccc(Cl)s2)n1 (centres unmarked) [Example 13] | 94 | 2.7^[b] | – | – |
| CC(C)(C)Cn1cc(-c2ccncc2)c(-c2ccc(Cl)s2)n1 [Example 24] | 90 | 2.39^[b] | – | – |
| CC(C)Cn1cc(-c2ccncn2)c(-c2ccc(Cl)s2)n1 [Example 26] | 70 | 3.31^[b] | – | – |
| CCn1cc(-c2ccncc2)c(-c2ccc(Cl)s2)n1 [Example 57] | 95 | 1.5^[b] | – | logP value of the minor isomer (in parenthesis in column Isomer ratio [d]) (minor isomer, main value of the example measured by method [b], pH 2.7): (1.42) |
| CCC(C)n1cc(-c2ccnc(N(C(C)=O)C(C)=O)n2)c(-c2ccc(Cl)s2)n1 (centres unmarked) [Example 150] | 95 | – | – | log p (pH 2.3): 3.72^[a] |
| CCC(C)n1cc(-c2ccnc(NC(C)=O)n2)c(-c2ccc(Cl)s2)n1 (centres unmarked) [Example 151] | 90 | – | – | log p (pH 2.3): 3^[a] |
| CCCc1c(-c2ccnc(NC(=O)CC)c2)c(-c2sccc2C)nn1C [Example 166] | 80 | 2.29^[b] | – | logP value of the minor isomer (pH 2.7): 2.39^[b]); log p (pH 7.8): 2.71^[c];; logP value of the minor isomer (pH 7.8): (2.84^[c]; |
| CC(C)C(=O)Nc1nccc(-c2cn(C(C)C)nc2-c2ccc(Cl)s2)n1 [Example 174] | 90 | – | – | log p (pH 2.3): 3.29^[a] |
| CC(=O)Nc1nccc(-c2cn(C(C)C)nc2-c2ccc(Cl)s2)n1 [Example 176] | 90 | – | – | log p (pH 2.3): 2.59^[a] |
| CC(C)n1cc(-c2ccnc(NC3CC3)n2)c(-c2ccc(Cl)s2)n1 [Example 177] | 95 | – | 90 | log p (pH 2.3): 2.59^[a] |
| CC(C)n1cc(-c2ccnc(NCC3CC3)n2)c(-c2ccc(Cl)s2)n1 [Example 183] | 70 | – | – | log p (pH 2.3): 3.02^[a] |
| CCC(C)n1cc(-c2ccnc(NC(C)COC)n2)c(-c2ccc(Cl)s2)n1 (centres unmarked) [Example 186] | 70 | – | – | log p (pH 2.3): 3.21^[a] |
| CCC(C)n1cc(-c2ccnc(NCC3CC3)n2)c(-c2ccc(Cl)s2)n1 (centres unmarked) [Example 187] | 70 | – | – | log p (pH 2.3): 3.41^[a] |
| C#CCNc1nccc(-c2cn(C(C)CC)nc2-c2ccc(Cl)s2)n1 (centres unmarked) [Example 188] | 78 | – | – | log p (pH 2.3): 3.68^[a] |
| CCC(C)n1cc(-c2ccnc(N)n2)c(-c2ccc(Cl)s2)n1 (centres unmarked) [Example 193] | 95 | – | – | log p (pH 2.3): 2.3^[a] |
| CCC(C)n1cc(-c2ccnc(NC3COC3)n2)c(-c2ccc(Cl)s2)n1 (centres unmarked) [Example 194] | 100 | – | 95 | % Inhibition of fungal growth at 50 μM [3]: 90%; % Inhibition of DON/AcDON at 50 μM [3]: 99%; log p (pH 2.3): 3.09^[a] |
| CCC(C)n1cc(-c2ccnc(NC3CC3)n2)c(-c2ccc(Cl)s2)n1 (centres unmarked) [Example 195] | 95 | – | – | % Inhibition of fungal growth at 50 μM [3]: 94%; % Inhibition of DON/AcDON at 50 μM [3]: 99%; log p (pH 2.3): 2.9^[a] |
| Cc1ccc(-c2nn(C(C)C)cc2-c2ccncc2)s1 [Example 199] | 95 | 1.5^[b] | 89 | % Inhibition of fungal growth at 50 μM [3]: 100%; % Inhibition of DON/AcDON at 50 μM [3]: 99% |
| CCC(C)n1cc(-c2ccnc(NC(=O)[C@H](C)O)c2)c(-c2ccc(Cl)s2)n1 (some centres unmarked) [Example 204] | 80 | 3.13^[b] | 80 | % Inhibition of fungal growth at 50 μM [3]: 56%; % Inhibition of DON/AcDON at 50 μM [3]: 95% |
| CC(C)n1cc(-c2ccnc(NC(=O)[C@H](C)O)c2)c(-c2ccc(Cl)s2)n1 [Example 205] | 95 | 2.75^[b] | 90 | % Inhibition of fungal growth at 50 μM [3]: 84%; % Inhibition of DON/AcDON at 50 μM [3]: 98% |
| CCn1cc(-c2ccnc(NC(=O)[C@H](C)O)c2)c(-c2ccc(Cl)s2)n1 [Example 206] | 90 | 2.37^[b] | 80 | – |
| C[C@H](O)C(=O)Nc1cc(-c2cn(C)nc2-c2ccc(Cl)s2)ccn1 [Example 207] | 70 | 2.11^[b] | – | – |
| Cn1cc(-c2ccnc(NC(=O)C(C)(C)O)c2)c(-c2ccc(Cl)s2)n1 [Example 208] | 80 | 2.26^[b] | – | – |

| Compound | protection [1] [%] | log p (pH 2.7) | efficacy [2] [%] | also measured |
| --- | --- | --- | --- | --- |
| CCC(C)n1cc(-c2ccnc(NC(=O)C(C)(C)O)c2)c(-c2ccc(Cl)s2)n1 (centres unmarked) [Example 210] | 70 | 4.24^[b] | 90 | – |
| CC(C)n1cc(-c2ccnc(NC(=O)C(C)(C)O)c2)c(-c2ccc(Cl)s2)n1 [Example 211] | 95 | 3.17^[b] | 90 | – |
| CCn1cc(-c2ccnc(NC(=O)C(C)(C)O)c2)c(-c2ccc(Cl)s2)n1 [Example 212] | 80 | 2.73^[b] | 70 | – |
| CCC(C)n1nc(-c2ccc(Cl)s2)c(-c2ccncc2)c1F (centres unmarked) [Example 213] | 70 | 2.61^[b] | 80 | – |
| CCC(C)n1cc(-c2ccnc(NC(=O)Cc3ccccc3)c2)c(-c2ccc(Cl)s2)n1 (centres unmarked) [Example 224] | 95 | 4.35^[b] | 80 | – |
| CCC(C)n1cc(-c2ccnc(NC(=O)c3ccsc3)c2)c(-c2ccc(Cl)s2)n1 (centres unmarked) [Example 230] | 70 | 4.21^[b] | – | – |
| CC(C)n1cc(-c2ccnc(NC(=O)c3ccsc3)c2)c(-c2ccc(Cl)s2)n1 [Example 232] | 80 | 3.79^[b] | 80 | – |
| CC(C)n1cc(-c2ccnc(NC(=O)C(C)(C)C)c2)c(-c2ccc(Cl)s2)n1 [Example 233] | 90 | 3.87^[b] | 90 | – |
| CCOC(=O)Nc1cc(-c2cn(C(C)CC)nc2-c2ccc(Cl)s2)ccn1 (centres unmarked) [Example 236] | 95 | 3.92^[b] | 80 | – |
| CCC(C)n1cc(-c2ccnc(NC(=O)c3cccs3)c2)c(-c2ccc(Cl)s2)n1 (centres unmarked) [Example 238] | 80 | 4.37^[b] | 70 | – |
| CC(C)n1cc(-c2ccnc(NC(=O)c3cccs3)c2)c(-c2ccc(Cl)s2)n1 [Example 241] | 80 | 3.96^[b] | – | – |
| CC(C)OC(=O)Nc1cc(-c2cn(C(C)C)nc2-c2ccc(Cl)s2)ccn1 [Example 242] | 70 | 3.85^[b] | 90 | – |
| CC(C)n1cc(-c2ccnc(NC(=O)Cc3ccccc3)c2)c(-c2ccc(Cl)s2)n1 [Example 245] | 100 | 3.94^[b] | – | – |
| CCn1cc(-c2ccnc(NC(=O)c3ccsc3)c2)c(-c2ccc(Cl)s2)n1 [Example 254] | 90 | 3.29^[b] | 70 | – |
| CCn1cc(-c2ccnc(NC(=O)C(C)(C)C)c2)c(-c2ccc(Cl)s2)n1 [Example 255] | 100 | 3.37^[b] | 90 | – |
| CCOC(=O)Nc1cc(-c2cn(C(C)C)nc2-c2ccc(Cl)s2)ccn1 [Example 259] | 80 | 3.46^[b] | 90 | – |
| CCn1cc(-c2ccnc(NC(=O)Cc3ccccc3)c2)c(-c2ccc(Cl)s2)n1 [Example 262] | 90 | 3.48^[b] | 80 | – |
| CCOC(=O)Nc1cc(-c2cn(CC)nc2-c2ccc(Cl)s2)ccn1 [Example 265] | 70 | 3^[b] | – | % Inhibition of fungal growth at 50 μM [3]: 23%; % Inhibition of DON/AcDON at 50 μM [3]: 87% |
| CCn1cc(-c2ccnc(NC(=O)c3cccs3)c2)c(-c2ccc(Cl)s2)n1 [Example 267] | 80 | 3.48^[b] | – | % Inhibition of fungal growth at 50 μM [3]: 47%; % Inhibition of DON/AcDON at 50 μM [3]: 89% |
| CCOC(=O)Nc1cc(-c2cn(C)nc2-c2ccc(Cl)s2)ccn1 [Example 271] | 90 | 2.56^[b] | – | % Inhibition of fungal growth at 50 μM [3]: 20%; % Inhibition of DON/AcDON at 50 μM [3]: 94% |
| Cn1cc(-c2ccnc(NC(=O)c3ccccc3)c2)c(-c2ccc(Cl)s2)n1 [Example 272] | 70 | 3.09^[b] | – | – |
| CC(C)OC(=O)Nc1cc(-c2cn(C)nc2-c2ccc(Cl)s2)ccn1 [Example 274] | 80 | 2.9^[b] | 80 | – |
| Cn1cc(-c2ccnc(NC(=O)C3CCC3)c2)c(-c2ccc(Cl)s2)n1 [Example 275] | 90 | 2.52^[b] | – | % Inhibition of fungal growth at 50 μM [3]: 95%; % Inhibition of DON/AcDON at 50 μM [3]: 99% |
| Cn1cc(-c2ccnc(NC(=O)c3ccsc3)c2)c(-c2ccc(Cl)s2)n1 [Example 282] | 70 | 2.88^[b] | 80 | – |
